# Data published in patent US8138183B2, “Morpholino pyrimidine derivatives used in diseases linked to mTOR kinase and/or PI3K” (AstraZeneca AB, priority 2007, dated 2012).
# Molecular target: recombinant mTOR (Homo sapiens, UniProt P42345)
# Test: In Vitro mTOR Kinase Assay (Echo), Test (a)(ii) (AlphaScreen)
# Assay type: biochemical
# Conditions: Echo acoustic dispensing
# Experimental: (a)(ii) In Vitro mTOR Kinase Assay (Echo)
# The assay used AlphaScreen technology (Gray et al., Analytical Biochemistry, 2003, 313: 234-245) to determine the ability of test compounds to inhibit phosphorylation by recombinant mTOR.
# The HEK293 FLAG-tagged mTOR (1362-2549) stable cell line was routinely maintained at 37° C. with 5% CO2 up to a confluency of 70-90% in Dulbecco's modified Eagle's growth medium (DMEM; Invitrogen Limited, Paisley, UK Catalogue No. 41966-029) containing 10% heat-inactivated foetal calf serum (FCS; Sigma, Poole, Dorset, UK, Catalogue No. F0392), 1% L-glutamine (Gibco, Catalogue No. 25030-024) and 2 mg/ml Geneticin (G418 sulfate; Invitrogen Limited, UK Catalogue No. 10131-027). Following expression in the mammalian HEK293 cell line, expressed protein was purified using the FLAG epitope tag using standard purification techniques.
# Aliquots ([…]) of each compound dilution were acoustically […] using a Labcyte Echo 550 into a well of a Greiner 384-well low volume (LV) white polystyrene plate (Greiner Bio-one). A […] mixture of recombinant purified mTOR enzyme, 1 μM biotinylated peptide substrate (Biotin-Ahx-[…]NH2; Bachem UK Ltd), ATP (20 μM) and a buffer solution [comprising Tris-HCl pH7.4 buffer (50 mM), EGTA (0.1 mM), bovine serum albumin (0.5 mg/mL), DTT (1.25 mM) and manganese chloride (10 mM)] was incubated at room temperature for […].
# These assay solutions were incubated for 2 hours at room temperature.
# Each reaction was stopped by the addition of […] of a mixture of EDTA (50 mM), bovine serum albumin (BSA; 0.5 mg/mL) and Tris-HCl pH7.4 buffer (50 mM) containing
# p70 S6 Kinase (T389) 1A5 Monoclonal Antibody (Cell Signalling Technology, Catalogue No. 9206B) and AlphaScreen Streptavidin donor and Protein A acceptor beads (200 ng; Perkin Elmer, Catalogue No. 6760002B and 6760137R respectively) were added and the assay plates were left overnight at room temperature in the dark. The resultant signals arising from laser light excitation at 680 nm were read using a Packard Envision instrument.
# The phosphorylated biotinylated peptide that is associated with AlphaScreen Streptavidin donor beads forms a complex with the p70 S6 Kinase (T389) 1A5 Monoclonal Antibody that is associated with Alphascreen Protein A acceptor beads. Upon laser light excitation at 680 nm, the donor bead : acceptor bead complex produces a signal that can be measured. Accordingly, the presence of mTOR kinase activity results in an assay signal. In the presence of an mTOR kinase inhibitor, signal strength is reduced. mTOR enzyme inhibition for a given test compound was expressed as an IC50 value.
# recombinant mTOR, sequence (P42345 1362-2549): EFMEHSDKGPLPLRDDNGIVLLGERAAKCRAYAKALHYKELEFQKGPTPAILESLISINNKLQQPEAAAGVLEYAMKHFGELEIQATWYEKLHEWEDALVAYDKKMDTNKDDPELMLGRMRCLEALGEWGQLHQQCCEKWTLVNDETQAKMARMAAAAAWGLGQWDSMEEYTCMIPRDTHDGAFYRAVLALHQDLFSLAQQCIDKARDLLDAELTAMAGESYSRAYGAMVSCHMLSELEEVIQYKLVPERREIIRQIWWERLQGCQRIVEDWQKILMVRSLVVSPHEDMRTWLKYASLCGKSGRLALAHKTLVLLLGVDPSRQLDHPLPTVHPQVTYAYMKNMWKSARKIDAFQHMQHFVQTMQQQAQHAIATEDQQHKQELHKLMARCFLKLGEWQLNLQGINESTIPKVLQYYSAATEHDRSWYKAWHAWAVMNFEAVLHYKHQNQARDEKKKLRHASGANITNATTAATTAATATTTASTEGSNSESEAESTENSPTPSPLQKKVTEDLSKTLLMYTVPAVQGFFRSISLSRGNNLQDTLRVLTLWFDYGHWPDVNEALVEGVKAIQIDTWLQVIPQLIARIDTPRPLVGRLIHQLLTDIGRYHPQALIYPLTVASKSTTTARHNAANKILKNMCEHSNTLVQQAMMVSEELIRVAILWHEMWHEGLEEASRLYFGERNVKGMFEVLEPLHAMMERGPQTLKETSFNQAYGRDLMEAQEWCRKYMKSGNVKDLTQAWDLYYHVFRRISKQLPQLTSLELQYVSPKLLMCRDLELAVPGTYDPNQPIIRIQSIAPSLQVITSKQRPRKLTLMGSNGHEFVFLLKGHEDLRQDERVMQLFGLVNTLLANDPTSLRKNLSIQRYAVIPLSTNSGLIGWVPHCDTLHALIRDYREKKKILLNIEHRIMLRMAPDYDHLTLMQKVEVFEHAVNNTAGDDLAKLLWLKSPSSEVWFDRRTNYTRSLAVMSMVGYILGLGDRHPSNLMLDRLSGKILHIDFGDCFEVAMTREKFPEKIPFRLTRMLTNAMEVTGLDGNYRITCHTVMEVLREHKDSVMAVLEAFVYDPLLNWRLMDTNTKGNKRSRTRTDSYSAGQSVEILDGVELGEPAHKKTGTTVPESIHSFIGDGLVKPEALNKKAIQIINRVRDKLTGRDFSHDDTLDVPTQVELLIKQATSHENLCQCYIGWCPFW
row,SMILES,IC50 [nM]
1,"C[C@H]1COCCN1c1cc(CS(C)(=O)=O)nc(-c2ccc(NC(=S)NC3CC3)cc2)n1 [Example 1, 3-Cyclopropyl-1-[4-[4-[(3S)-3-methylmorpholin-4-yl]-6-(methylsulfonylmethyl)pyrimidin-2-yl]phenyl]thiourea]",19.7
2,"CCNC(=S)Nc1ccc(-c2nc(CS(C)(=O)=O)cc(N3CCOC[C@@H]3C)n2)cc1 [Example 1a, 3-ethyl-1-[4-[4-[(3S)-3-methylmorpholin-4-yl]-6-(methylsulfonylmethyl)pyrimidin-2-yl]phenyl]thiourea]",17.7
3,"COc1ccc(NC(=S)Nc2ccc(-c3nc(CS(C)(=O)=O)cc(N4CCOC[C@@H]4C)n3)cc2)cc1 [Example 1c, 3-(4-methoxyphenyl)-1-[4-[4-[(3S)-3-methylmorpholin-4-yl]-6-(methylsulfonylmethyl)pyrimidin-2-yl]phenyl]thiourea]",68.8
4,"C[C@H]1COCCN1c1cc(CS(C)(=O)=O)nc(-c2ccc(NC(=S)Nc3ccc(F)cc3)cc2)n1 [Example 1d, 3-(4-fluorophenyl)-1-[4-[4-[(3S)-3-methylmorpholin-4-yl]-6-(methylsulfonylmethyl)pyrimidin-2-yl]phenyl]thiourea]",21.5
5,"C[C@H]1COCCN1c1cc(C(C)(C)S(C)(=O)=O)nc(-c2ccc(NC(=S)NC3CC3)cc2)n1 [Example 2, 3-Cyclopropyl-1-[4-[4-[(3S)-3-methylmorpholin-4-yl]-6-(2-methylsulfonylpropan-2-yl)pyrimidin-2-yl]phenyl]thiourea]",4.77
6,"CNC(=S)Nc1ccc(-c2nc(N3CCOC[C@@H]3C)cc(C(C)(C)S(C)(=O)=O)n2)cc1 [Example 2a, 3-methyl-1-[4-[4-[(3S)-3-methylmorpholin-4-yl]-6-(2-methylsulfonylpropan-2-yl)pyrimidin-2-yl]phenyl]thiourea]",5.1
7,"CCNC(=S)Nc1ccc(-c2nc(N3CCOC[C@@H]3C)cc(C(C)(C)S(C)(=O)=O)n2)cc1 [Example 2b, 3-ethyl-1-[4-[4-[(3S)-3-methylmorpholin-4-yl]-6-(2-methylsulfonylpropan-2-yl)pyrimidin-2-yl]phenyl]thiourea]",6.8
8,"C[C@H]1COCCN1c1cc(C(C)(C)S(C)(=O)=O)nc(-c2ccc(NC(=S)NCCN(C)C)cc2)n1 [Example 2d, 3-(2-dimethylaminoethyl)-1-[4-[4-[(3S)-3-methylmorpholin-4-yl]-6-(2-methylsulfonylpropan-2-yl)pyrimidin-2-yl]phenyl]thiourea]",305
9,"CNC(=S)Nc1ccc(-c2nc(N3CCOC[C@@H]3C)cc(C(C)(C)S(=O)(=O)c3ccccc3)n2)cc1 [Example 3, 1-[4-[4-[2-(Benzenesulfonyl)propan-2-yl]-6-[(3S)-3-methylmorpholin-4-yl]pyrimidin-2-yl]phenyl]-3-methylthiourea]",11
10,"C[C@H]1COCCN1c1cc(C(C)(C)S(=O)(=O)c2ccccc2)nc(-c2ccc(NC(=S)NC3CC3)cc2)n1 [Example 3a, 1-[4-[4-[2-(benzenesulfonyl)propan-2-yl]-6-[(3S)-3-methylmorpholin-4-yl]pyrimidin-2-yl]phenyl]-3-cyclopropylthiourea]",7.17
11,"CCNC(=S)Nc1ccc(-c2nc(N3CCOC[C@@H]3C)cc(C(C)(C)S(=O)(=O)c3ccccc3)n2)cc1 [Example 3b, 1-[4-[4-[2-(benzenesulfonyl)propan-2-yl]-6-[(3S)-3-methylmorpholin-4-yl]pyrimidin-2-yl]phenyl]-3-ethylthiourea]",12.4
12,"C[C@H]1COCCN1c1cc(C(C)(C)S(=O)(=O)c2ccccc2)nc(-c2ccc(NC(=S)NCCO)cc2)n1 [Example 3c, 1-[4-[4-[2-(benzenesulfonyl)propan-2-yl]-6-[(3S)-3-methylmorpholin-4-yl]pyrimidin-2-yl]phenyl]-3-(2-hydroxyethyl)thiourea]",3.08
13,"C[C@H]1COCCN1c1cc(C(C)(C)S(=O)(=O)CCCO)nc(-c2ccc(NC(=S)NC3CC3)cc2)n1 [Example 4, 3-Cyclopropyl-1-[4-[4-[2-(3-hydroxypropylsulfonyl)propan-2-yl]-6-[(3S)-3-methylmorpholin-4-yl]pyrimidin-2-yl]phenyl]thiourea]",161
14,"C[C@H]1COCCN1c1cc(C(C)(C)S(=O)(=O)CCCO)nc(-c2ccc(NC(=S)NCCO)cc2)n1 [Example 4a, 3-(2-hydroxyethyl)-1-[4-[4-[2-(3-hydroxypropylsulfonyl)propan-2-yl]-6-[(3S)-3-methylmorpholin-4-yl]pyrimidin-2-yl]phenyl]thiourea]",15.5
15,"CNC(=S)Nc1ccc(-c2nc(N3CCOC[C@@H]3C)cc(C(C)(C)S(=O)(=O)CCCO)n2)cc1 [Example 4b, 1-[4-[4-[2-(3-hydroxypropylsulfonyl)propan-2-yl]-6-[(3S)-3-methylmorpholin-4-yl]pyrimidin-2-yl]phenyl]-3-methylthiourea]",154
16,"CCNC(=S)Nc1ccc(-c2nc(N3CCOC[C@@H]3C)cc(C(C)(C)S(=O)(=O)CCCO)n2)cc1 [Example 4c, 3-ethyl-1-[4-[4-[2-(3-hydroxypropylsulfonyl)propan-2-yl]-6-[(3S)-3-methylmorpholin-4-yl]pyrimidin-2-yl]phenyl]thiourea]",58.5
17,"C[C@H]1COCCN1c1cc(C(C)(C)O)nc(-c2ccc(NC(=S)NCCO)cc2)n1 [Example 5, 3-(2-Hydroxyethyl)-1-[4-[4-(2-hydroxypropan-2-yl)-6-[(3S)-3-methylmorpholin-4-yl]pyrimidin-2-yl]phenyl]thiourea]",7.9
18,"CNC(=S)Nc1ccc(-c2nc(N3CCOC[C@@H]3C)cc(C(C)(C)O)n2)cc1 [Example 5a, 1-[4-[4-(2-hydroxypropan-2-yl)-6-[(3S)-3-methylmorpholin-4-yl]pyrimidin-2-yl]phenyl]-3-methylthiourea]",36.7
19,"C[C@H]1COCCN1c1cc(C(C)(C)O)nc(-c2ccc(NC(=S)NC3CC3)cc2)n1 [Example 5b, 3-cyclopropyl-1-[4-[4-(2-hydroxypropan-2-yl)-6-[(3S)-3-methylmorpholin-4-yl]pyrimidin-2-yl]phenyl]thiourea]",38.4
20,"CCNC(=S)Nc1ccc(-c2nc(N3CCOC[C@@H]3C)cc(C(C)(C)O)n2)cc1 [Example 5c, 3-ethyl-1-[4-[4-(2-hydroxypropan-2-yl)-6-[(3S)-3-methylmorpholin-4-yl]pyrimidin-2-yl]phenyl]thiourea]",37.4
